Experimental data from ChEMBL document CHEMBL5620422, “Design, synthesis, and biological evaluation of a series of new anthraquinone derivatives as anti-ZIKV agents” (Eur J Med Chem, 2023).
Activity calls are given as the source filed them. The calls are words filed in the database; no cut-off is given here.

What was measured:
Zika virus = experiment: Antiviral activity against ZIKV ZG-01 infected in A549 cells preincubated for 1 hr followed by replacement with fresh media containing compound for 48 hrs by crystal violet staining based plaque assay; format: functional, organism-based; conditions: ZG-01, A549
[1] = Cytotoxicity against human A549 cells assessed as reduction in cell viability incubated for 48 hrs by MTT assay; format: toxicity, cell-based
[2] = tested on: Porcine reproductive and respiratory syndrome virus; experiment: Antiviral activity against Porcine reproductive and respiratory syndrome virus infected in MARC145 cells assessed as reduction in viral replication by microscopic analysis; format: functional, organism-based
NS5 (Zika virus) = NS5 (Zika virus) (UniProt A0A143MHK7); experiment: Binding affinity to ZIKV RdRP by SPR assay

Row | Structure (SMILES) | EC50 (Zika virus) | CC50 at 48 h [1] | EC50 [2] | Activity (NS5 (Zika virus))
1 | C[C@]1(O)CC2=C(C[C@@]1(C)O)C(=O)c1c(O)cc(NCCN3CCCCC3)c(O)c1C2=O | 8.7 µM | > 50 µM |  | 
2 | C[C@]1(O)CC2=C(C[C@@]1(C)O)C(=O)c1c(O)cc(NC3CCC3)c(O)c1C2=O | 38.4 µM | > 50 µM |  | 
3 | C[C@]1(O)CC2=C(C[C@@]1(C)O)C(=O)c1c(O)cc(NC3CCCCC3)c(O)c1C2=O | 15.5 µM | > 50 µM |  | 
4 | C[C@]1(O)CC2=C(C[C@@]1(C)O)C(=O)c1c(O)cc(NCCc3cccs3)c(O)c1C2=O | 7.8 µM | > 50 µM |  | 
5 | C[C@]1(O)CC2=C(C[C@@]1(C)O)C(=O)c1c(O)cc(N3CCCC3)c(O)c1C2=O | 25.6 µM | > 50 µM |  | 
6 | COc1cc(O)c2c(c1)[C@@H](O)[C@H]1C[C@](C)(O)[C@H](O)C[C@@H]1C2=O [TETRAHYDROALTERSOLANOL C] |  |  | 12.1 µM | 
7 | C[C@]1(O)CC2=C(C[C@@]1(C)O)C(=O)c1c(O)cc(NC3CCCC3)c(O)c1C2=O | 17.1 µM | > 50 µM |  | 
8 | C[C@]1(O)CC2=C(C[C@@]1(C)O)C(=O)c1c(O)cc(NCCc3ccccc3)c(O)c1C2=O | 4.2 µM | > 50 µM |  | 
9 | C[C@]1(O)CC2=C(C[C@@]1(C)O)C(=O)c1c(O)cc(N3CCOCC3)c(O)c1C2=O | 15.4 µM | > 50 µM |  | 
10 | C[C@]1(O)CC2=C(C[C@@]1(C)O)C(=O)c1c(O)cc(NCCN3CCCC3)c(O)c1C2=O | 8.4 µM | > 50 µM |  | 
11 | C[C@]1(O)CC2=C(C[C@@]1(C)O)C(=O)c1c(O)cc(NCCc3ccco3)c(O)c1C2=O | 8.1 µM | > 50 µM |  | 
12 | C[C@]1(O)CC2=C(C[C@@]1(C)O)C(=O)c1c(O)cc(NCc3ccco3)c(O)c1C2=O | 16.5 µM | > 50 µM |  | 
13 | C[C@]1(O)CC2=C(C[C@@]1(C)O)C(=O)c1c(O)cc(NCCO)c(O)c1C2=O | 48.4 µM | > 50 µM |  | 
14 | C[C@]1(O)CC2=C(C[C@@]1(C)O)C(=O)c1c(O)cc(NCC3CCCO3)c(O)c1C2=O (some centres undefined) | 36.1 µM | > 50 µM |  | 
15 | CCNc1cc(O)c2c(c1O)C(=O)C1=C(C[C@@](C)(O)[C@@](C)(O)C1)C2=O | 44.2 µM | > 50 µM |  | 
16 | C[C@]1(O)CC2=C(C[C@@]1(C)O)C(=O)c1c(O)cc(NCc3ccccc3)c(O)c1C2=O | 10.3 µM | > 50 µM |  | 
17 | C[C@]1(O)CC2=C(C[C@@]1(C)O)C(=O)c1c(O)cc(NCCN3CCOCC3)c(O)c1C2=O | 24.5 µM | > 50 µM |  | 
18 | NC(=O)c1ncn([C@@H]2O[C@H](CO)[C@@H](O)[C@H]2O)n1 |  |  |  | inactive
19 | CCCNc1cc(O)c2c(c1O)C(=O)C1=C(C[C@@](C)(O)[C@@](C)(O)C1)C2=O | 42.6 µM | > 50 µM |  | 
20 | CCC(C)Nc1cc(O)c2c(c1O)C(=O)C1=C(C[C@@](C)(O)[C@@](C)(O)C1)C2=O (some centres undefined) | > 50 µM | > 50 µM |  | 
21 | C[C@]1(O)CC2=C(C[C@@]1(C)O)C(=O)c1c(O)cc(NCCC3=CCCCC3)c(O)c1C2=O | 5.7 µM | > 50 µM |  | 
22 | C[C@]1(O)CC2=C(C[C@@]1(C)O)C(=O)c1c(O)cc(NCc3cccs3)c(O)c1C2=O | 12.2 µM | > 50 µM |  | 
23 | C[C@]1(O)CC2=C(C[C@@]1(C)O)C(=O)c1c(O)cc(NC3CC3)c(O)c1C2=O | 48.1 µM | > 50 µM |  | 
